Measurements reported in patent US20240383875A1, “Benzimidazole Pyridine Derivatives” (Hoffmann-La Roche Inc., priority 2022, published 2024).

Tests used:
Format in all cases: biochemical
SIK2 = SIK2 (Homo sapiens, UniProt Q9H0K1); experiment: Enzymatic activity assay SIK2, RapidFire mass spectrometry (phosphorylation of CHK-peptide); details: RapidFire MS, inhibition of SIK2; read-out: SIK2 RF IC50
In short: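 Read-out is the summed phospho-species fraction of CHK-peptide by RapidFire mass spectrometry, normalized between DMSO and 1 μM YKL-05-099. The reaction used 0.5 nM SIK2, 100 μM ATP and 10 μM peptide solutions in HEPES pH 7.0/10 mM magnesium acetate for 45 min at ambient temperature.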

SIK3 = SIK3 (Homo sapiens, UniProt Q9Y2K2); experiment: Enzymatic activity assay SIK3, RapidFire mass spectrometry (phosphorylation of CHK-peptide); details: RapidFire MS, inhibition of SIK3; read-out: SIK3 RF IC50
In short: (§1)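 Human SIK1/2/3, 5/0.5/1.5 nM; 12.5 mM HEPES pH 7.0, 10 mM Mg acetate, 0.005% BSA. 30 min cpd pre-inc, + CHK-peptide (10 μM soln) + ATP (100 μM soln), 45 min RT. Formic acid stop; RF-MS phospho ratio; IC50.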

SIK1 = SIK1 (Homo sapiens, UniProt P57059); experiment: Enzymatic activity assay SIK1, RapidFire mass spectrometry (phosphorylation of CHK-peptide); details: RapidFire MS, inhibition of SIK1; read-out: SIK1 RF IC50
In short: as §1

Sequence of SIK1 (P57059 whole entry): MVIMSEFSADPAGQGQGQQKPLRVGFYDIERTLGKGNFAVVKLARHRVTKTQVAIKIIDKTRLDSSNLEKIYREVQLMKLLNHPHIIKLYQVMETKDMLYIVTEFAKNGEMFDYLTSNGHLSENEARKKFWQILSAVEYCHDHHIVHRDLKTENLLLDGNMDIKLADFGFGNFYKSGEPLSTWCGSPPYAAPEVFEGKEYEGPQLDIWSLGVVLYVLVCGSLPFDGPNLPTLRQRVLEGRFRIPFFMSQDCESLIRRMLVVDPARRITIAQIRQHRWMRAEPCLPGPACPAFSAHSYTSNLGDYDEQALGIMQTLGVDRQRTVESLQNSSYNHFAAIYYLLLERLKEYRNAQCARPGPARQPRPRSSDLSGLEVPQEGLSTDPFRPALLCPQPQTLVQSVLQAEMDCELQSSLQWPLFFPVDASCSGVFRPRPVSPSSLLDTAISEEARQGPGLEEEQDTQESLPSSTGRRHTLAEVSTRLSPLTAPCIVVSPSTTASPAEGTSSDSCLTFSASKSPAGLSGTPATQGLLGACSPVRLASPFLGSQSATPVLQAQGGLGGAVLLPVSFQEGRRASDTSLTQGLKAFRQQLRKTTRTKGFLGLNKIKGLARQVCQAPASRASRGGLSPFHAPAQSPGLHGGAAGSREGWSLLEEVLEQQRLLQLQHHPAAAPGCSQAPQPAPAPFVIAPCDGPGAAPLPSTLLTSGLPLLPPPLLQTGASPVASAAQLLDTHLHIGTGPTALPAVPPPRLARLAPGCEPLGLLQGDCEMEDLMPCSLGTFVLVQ
Sequence of SIK3 (Q9Y2K2 whole entry): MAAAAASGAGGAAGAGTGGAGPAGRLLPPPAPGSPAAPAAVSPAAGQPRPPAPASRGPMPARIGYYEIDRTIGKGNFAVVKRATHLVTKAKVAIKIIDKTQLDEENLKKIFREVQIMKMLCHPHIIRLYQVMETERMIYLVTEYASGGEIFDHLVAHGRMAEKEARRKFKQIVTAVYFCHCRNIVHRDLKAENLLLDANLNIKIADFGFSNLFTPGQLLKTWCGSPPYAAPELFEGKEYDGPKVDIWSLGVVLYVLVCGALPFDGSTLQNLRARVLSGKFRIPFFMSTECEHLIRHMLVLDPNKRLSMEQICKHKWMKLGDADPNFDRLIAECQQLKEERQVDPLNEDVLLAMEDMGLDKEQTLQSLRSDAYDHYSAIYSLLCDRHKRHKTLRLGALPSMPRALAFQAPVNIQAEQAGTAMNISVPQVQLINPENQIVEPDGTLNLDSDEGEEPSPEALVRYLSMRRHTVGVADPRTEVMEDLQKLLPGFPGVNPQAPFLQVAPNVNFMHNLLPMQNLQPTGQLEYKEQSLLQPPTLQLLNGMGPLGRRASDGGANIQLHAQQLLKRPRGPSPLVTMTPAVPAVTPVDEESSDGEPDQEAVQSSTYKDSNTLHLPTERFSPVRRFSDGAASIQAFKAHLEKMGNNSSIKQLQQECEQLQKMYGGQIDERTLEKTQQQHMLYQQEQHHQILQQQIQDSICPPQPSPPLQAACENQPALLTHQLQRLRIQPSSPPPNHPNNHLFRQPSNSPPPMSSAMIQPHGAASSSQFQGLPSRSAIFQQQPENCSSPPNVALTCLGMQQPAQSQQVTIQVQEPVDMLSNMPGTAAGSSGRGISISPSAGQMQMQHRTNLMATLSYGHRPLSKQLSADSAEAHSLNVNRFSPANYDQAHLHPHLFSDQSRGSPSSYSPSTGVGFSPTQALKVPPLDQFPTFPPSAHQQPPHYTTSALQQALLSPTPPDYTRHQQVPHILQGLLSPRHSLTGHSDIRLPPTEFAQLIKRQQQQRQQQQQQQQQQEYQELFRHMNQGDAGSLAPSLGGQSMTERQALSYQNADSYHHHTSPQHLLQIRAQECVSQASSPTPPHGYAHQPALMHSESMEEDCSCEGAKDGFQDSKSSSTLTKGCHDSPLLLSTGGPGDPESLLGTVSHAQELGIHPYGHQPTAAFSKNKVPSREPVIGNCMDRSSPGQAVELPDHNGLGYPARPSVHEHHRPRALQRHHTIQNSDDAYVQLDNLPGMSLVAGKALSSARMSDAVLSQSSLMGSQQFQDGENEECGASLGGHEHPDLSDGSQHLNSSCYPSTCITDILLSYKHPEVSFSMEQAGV
Sequence of SIK2 (Q9H0K1 whole entry): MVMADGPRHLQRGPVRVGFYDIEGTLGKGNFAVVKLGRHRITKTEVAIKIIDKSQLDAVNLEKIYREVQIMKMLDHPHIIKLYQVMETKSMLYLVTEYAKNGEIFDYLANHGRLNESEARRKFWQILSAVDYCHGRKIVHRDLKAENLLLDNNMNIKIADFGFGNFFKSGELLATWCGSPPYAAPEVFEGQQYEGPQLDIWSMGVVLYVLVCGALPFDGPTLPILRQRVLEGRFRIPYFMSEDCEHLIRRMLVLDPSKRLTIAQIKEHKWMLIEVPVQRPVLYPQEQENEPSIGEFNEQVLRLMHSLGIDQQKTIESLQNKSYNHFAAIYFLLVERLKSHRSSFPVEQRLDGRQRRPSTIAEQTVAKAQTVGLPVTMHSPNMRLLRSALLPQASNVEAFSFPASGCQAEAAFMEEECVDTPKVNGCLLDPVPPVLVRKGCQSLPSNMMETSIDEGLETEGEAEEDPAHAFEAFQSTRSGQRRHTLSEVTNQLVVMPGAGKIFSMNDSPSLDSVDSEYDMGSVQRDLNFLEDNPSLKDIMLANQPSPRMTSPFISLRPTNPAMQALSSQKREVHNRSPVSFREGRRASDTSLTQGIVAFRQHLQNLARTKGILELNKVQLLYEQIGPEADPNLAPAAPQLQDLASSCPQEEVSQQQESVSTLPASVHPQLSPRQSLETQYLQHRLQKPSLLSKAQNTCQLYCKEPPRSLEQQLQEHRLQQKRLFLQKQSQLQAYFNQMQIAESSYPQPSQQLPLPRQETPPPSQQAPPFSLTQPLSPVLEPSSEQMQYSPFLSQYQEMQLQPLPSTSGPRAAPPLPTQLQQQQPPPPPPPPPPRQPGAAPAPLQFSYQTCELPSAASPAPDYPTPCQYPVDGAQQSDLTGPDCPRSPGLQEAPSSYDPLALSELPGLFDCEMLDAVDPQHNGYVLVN

Row | Compound | IC50 (SIK2) [nM] | IC50 (SIK3) [nM] | IC50 (SIK1) [nM]
1 | Cc1cc(OC(F)F)nn1-c1nc(-n2cnc3cc(Nc4cccnn4)c(F)cc32)ccc1[C@H](C)O [Example 373, (1S)-1-[2-[3-(difluoromethoxy)-5-methyl-pyrazol-1-yl]-6-[6-fluoro-5-(pyridazin-3-ylamino)benzimidazol-1-yl]-3-pyridyl]ethanol] | 0.8 | 0.7 | 184
2 | Cc1ccc(Nc2cc3ncn(-c4ccc([C@H](C)O)c(-n5nc(OC(F)F)cc5C)n4)c3cc2F)nn1 [Example 374, (1S)-1-[2-[3-(difluoromethoxy)-5-methyl-pyrazol-1-yl]-6-[6-fluoro-5-[(6-methylpyridazin-3-yl)amino]benzimidazol-1-yl]-3-pyridyl]ethanol] | 0.3 | 0.4 | 88
3 | Cc1ccc(Nc2cc3ncn(-c4ccc([C@@H](C)O)c(-n5nc(OC(F)F)cc5C)n4)c3cc2F)nn1 [Example 375, (1R)-1-[2-[3-(difluoromethoxy)-5-methyl-pyrazol-1-yl]-6-[6-fluoro-5-[(6-methylpyridazin-3-yl)amino]benzimidazol-1-yl]-3-pyridyl]ethanol] | 6 | 8.7 | 998
4 | Cc1nnc(Nc2cc3c(cc2F)ncn3-c2ccc(C(C)O)c(-n3nc(C#N)cc3C)n2)o1 (stereo not drawn) [Example 376, 1-[6-[5-fluoro-6-[(5-methyl-1,3,4-oxadiazol-2-yl)amino]benzimidazol-1-yl]-3-(1-hydroxyethyl)-2-pyridyl]-5-methyl-pyrazole-3-carbonitrile] | 9.6 | 42 | 14
5 | Cc1nnc(Nc2cc3ncn(-c4ccc(C(C)O)c(-n5nc(C#N)cc5C)n4)c3cc2F)o1 (stereo not drawn) [Example 377, 1-[6-[6-fluoro-5-[(5-methyl-1,3,4-oxadiazol-2-yl)amino]benzimidazol-1-yl]-3-(1-hydroxyethyl)-2-pyridyl]-5-methyl-pyrazole-3-carbonitrile] | 31.5 | 43.2 | 47
6 | Cc1cc(C#N)nn1-c1nc(-n2cnc3cc(Nc4ccc(F)c(F)c4F)c(F)cc32)ccc1C(C)O (stereo not drawn) [Example 378, 1-[6-[6-fluoro-5-(2,3,4-trifluoroanilino)benzimidazol-1-yl]-3-(1-hydroxyethyl)-2-pyridyl]-5-methyl-pyrazole-3-carbonitrile] | 32.5 | 21.7 | 79
7 | Cc1cc(C#N)nn1-c1nc(-n2cnc3cc(F)c(Nc4ccc(F)c(F)c4F)cc32)ccc1C(C)O (stereo not drawn) [Example 379, 1-[6-[5-fluoro-6-(2,3,4-trifluoroanilino)benzimidazol-1-yl]-3-(1-hydroxyethyl)-2-pyridyl]-5-methyl-pyrazole-3-carbonitrile] | 0.2 | 0.4 | 1
8 | Cc1cc(C#N)nn1-c1nc(-n2cnc3cc(NC(=O)C4(F)CC4)ccc32)ccc1C(C)O (stereo not drawn) [Example 380, N-[1-[6-(3-cyano-5-methyl-pyrazol-1-yl)-5-(1-hydroxyethyl)-2-pyridyl]benzimidazol-5-yl]-1-fluoro-cyclopropanecarboxamide] | 16.6 | 12.4 | 81
9 | Cc1cc(C#N)nn1-c1nc(-n2cnc3cc(F)c(Nc4cc5c(nn4)CCC5)cc32)ccc1C(C)O (stereo not drawn) [Example 381, 1-[6-[6-(6,7-dihydro-5~{H}-cyclopenta[c]pyridazin-3-ylamino)-5-fluoro-benzimidazol-1-yl]-3-(1-hydroxyethyl)-2-pyridyl]-5-methyl-pyrazole-3-carbonitrile] | 32.7 | 195 | 55
10 | Cc1cc(C#N)nn1-c1nc(-n2cnc3cc(Nc4cc5c(nn4)CCC5)c(F)cc32)ccc1C(C)O (stereo not drawn) [Example 382, 1-[6-[5-(6,7-dihydro-5~{H}-cyclopenta[c]pyridazin-3-ylamino)-6-fluoro-benzimidazol-1-yl]-3-(1-hydroxyethyl)-2-pyridyl]-5-methyl-pyrazole-3-carbonitrile] | 0.5 | 0.6 | 207
11 | Cc1ccc(Nc2cc3ncn(-c4ccc([C@H](C)O)c(-n5nc(OC(F)F)cc5C)n4)c3cc2OC2COC2)nn1 [Example 383, (1S)-1-[2-[3-(difluoromethoxy)-5-methyl-pyrazol-1-yl]-6-[5-[(6-methylpyridazin-3-yl)amino]-6-(oxetan-3-yloxy)benzimidazol-1-yl]-3-pyridyl]ethanol] | 0.2 | 0.5 | 5

Next, values leading:

Row | IC50 (SIK2) [nM] | IC50 (SIK3) [nM] | IC50 (SIK1) [nM] | Compound
12 | 41.3 | 80.2 | 215 | Cc1ccc(Nc2cc3ncn(-c4ccc([C@@H](C)O)c(-n5nc(OC(F)F)cc5C)n4)c3cc2OC2COC2)nn1 [Example 384, (1R)-1-[2-[3-(difluoromethoxy)-5-methyl-pyrazol-1-yl]-6-[5-[(6-methylpyridazin-3-yl)amino]-6-(oxetan-3-yloxy)benzimidazol-1-yl]-3-pyridyl]ethanol]
13 | 2.8 | 2.5 | 22 | Cc1nnc(Nc2cc3ncn(-c4ccc(C(C)O)c(-n5nc(C#N)cc5C)n4)c3cc2F)s1 (stereo not drawn) [Example 385, 1-[6-[6-fluoro-5-[(5-methyl-1,3,4-thiadiazol-2-yl)amino]benzimidazol-1-yl]-3-(1-hydroxyethyl)-2-pyridyl]-5-methyl-pyrazole-3-carbonitrile]
14 | 1.2 | 1.2 | 69 | Cc1ccc(Nc2ccc3c(c2)ncn3-c2ccc(C(C)O)c(-c3ccn(CC(F)(F)F)c(=O)c3F)n2)nn1 (stereo not drawn) [Example 386, 3-fluoro-4-[3-(1-hydroxyethyl)-6-[5-[(6-methylpyridazin-3-yl)amino]benzimidazol-1-yl]-2-pyridyl]-1-(2,2,2-trifluoroethyl)pyridin-2-one]
15 | 2.3 | 1.8 | 462 | Cc1ccc(Nc2cc3ncn(-c4ccc(C(C)O)c(-n5nc(C(F)F)cc5C(F)F)n4)c3cc2F)nn1 (stereo not drawn) [Example 387, 1-[2-[3,5-bis(difluoromethyl)pyrazol-1-yl]-6-[6-fluoro-5-[(6-methylpyridazin-3-yl)amino]benzimidazol-1-yl]-3-pyridyl]ethanol]
16 | 0.4 | 0.7 | 11 | Cc1ccc(Nc2cc3ncn(-c4ccc(C(C)O)c(-n5nc(C#N)cc5C)n4)c3cc2OC(F)F)nn1 (stereo not drawn) [Example 388, 1-[6-[6-(difluoromethoxy)-5-[(6-methylpyridazin-3-yl)amino]benzimidazol-1-yl]-3-(1-hydroxyethyl)-2-pyridyl]-5-methyl-pyrazole-3-carbonitrile]
17 | 4.5 | 2 | 23 | Cc1ncc(Nc2cc3ncn(-c4ccc([C@H](C)O)c(-n5nc(C#N)cc5C)n4)c3cc2F)cc1F [Example 391, 1-[6-[6-fluoro-5-[(5-fluoro-6-methyl-3-pyridyl)amino]benzimidazol-1-yl]-3-[(1S)-1-hydroxyethyl]-2-pyridyl]-5-methyl-pyrazole-3-carbonitrile]
18 | 2 | 4.5 | 10 | Cc1cc(C#N)nn1-c1nc(-n2cnc3cc(-c4cnc(N5CCCC5=O)o4)ccc32)ccc1C(C)O (stereo not drawn) [Example 392, 1-[3-(1-hydroxyethyl)-6-[5-[2-(2-oxopyrrolidin-1-yl)oxazol-5-yl]benzimidazol-1-yl]-2-pyridyl]-5-methyl-pyrazole-3-carbonitrile]
